Values after ≈ are worked out from the molar mass of the structure shown. Where two headings read alike, the source gives them in different places.
Tests used:
S. aureus ATCC 12598 = experiment: Antibacterial activity, pre-exposure; type: cell-based, Staphylococcus aureus; conditions: for Average inhibition %, biofilms viability / Average inhibition %, planktonic cells viability / inhibition at 5 µM / inhibition at 10 µM / inhibition at 15 µM / inhibition at 25 µM: S. aureus ATCC 12598, pre-exposure, ± SD; for inhibition at 5 µM / inhibition at 10 µM / inhibition at 15 µM / inhibition at 25 µM / MIC: Staphylococcus aureus, ATCC12598; for MIC: pre-exposure, 18 h, read-out: MIC S. aureus ATCC 12598
Protocol: (§1) The antimicrobial activity was assessed in a similar way for the initial screening and the dose–response evaluation against different bacterial strains. With the exception of the post-exposure experiment, the compounds were added to the wells along with the bacteria to test the ability of compounds to prevent bacterial growth and biofilm formation (pre-exposure). The compounds were diluted in DMSO and plated directly in 96-well plates before adding the bacterial culture, and plates were incubated for 18 h under aerobic conditions at 37 °C with shaking (220 rpm). The antibacterial activity of the compounds was assessed on planktonic cells and biofilms separately using two different measurements for each: optical density (turbidity) and resazurin reduction (viability) on planktonic cells and resazurin followed by a crystal violet staining assay (total biomass) on biofilms, as described in the following sections.
(§2) The resazurin staining was performed according to the protocol previously optimized with a few modifications.[46] Briefly, the planktonic solution was first transferred into a new 96-well plate and the OD of the planktonic solution was measured using a Varioskan LUX Multimode microplate reader (Thermo Scientific, Vantaa, Finland). Then, 10 μL of a 400 μM resazurin (R7017, Sigma-Aldrich, St. Louis, MO) diluted in phosphate-buffered saline (PBS) (Thermo Fisher Scientific, MA) was added to the wells (for a final resazurin concentration of 20 μM). The plate was incubated in the dark with shaking (220 rpm) for about 3–10 min at room temperature with S. aureus and A. baumannii (until the bacteria controls turned pink) or for 20 min at 37 °C with P. aeruginosa. Fluorescence was measured at λex = 560 nm and λem = 590 nm using the top optics of the Varioskan LUX Multimode microplate reader. The planktonic plate was then discarded. The original challenge plate containing the biofilms was washed once with PBS, and 200 μL of a 20 μM resazurin solution was added to the wells. The plate was incubated in the dark at 37 °C with shaking (220 rpm) for 30 min with S. aureus, 60 min with A. baumannii, and 90 min with P. aeruginosa. Fluorescence was measured as described for the planktonic solution. The biofilms were next treated with crystal violet staining.
(§3) After removing the resazurin solution from the plate, biofilms were fixed with ethanol 100% for 15 min at room temperature. Ethanol was then removed, and the biofilms were left to air-dry completely at RT. Crystal violet, diluted to 1:100 in deionized water from the 2.3% commercial solution (HT90132, Sigma-Aldrich, St. Louis, MO), was added to the wells and, after a 5 min incubation with the dye, the biofilms were washed twice with deionized water and left to air-dry for about 10 min. The dye was solubilized in ethanol 100% for 1 h, and absorbance was measured at 595 nm using a Multiskan Sky microplate spectrophotometer (Thermo Scientific, Vantaa, Finland).

S. aureus P2 = experiment: Antibacterial activity, pre-exposure; type: cell-based, Staphylococcus aureus; conditions: for Average inhibition %, biofilms viability / Average inhibition %, planktonic cells viability / inhibition at 5 µM / inhibition at 10 µM / inhibition at 15 µM / inhibition at 25 µM: S. aureus P2, pre-exposure, ± SD; for MIC / inhibition at 5 µM / inhibition at 10 µM / inhibition at 15 µM / inhibition at 25 µM: Staphylococcus aureus; for MIC: P2, pre-exposure, 18 h
Protocol: as §1, §2, §3

[1] = 5 µM, read-out: Average inhibition %, biofilms biomass
[2] = 5 µM, read-out: Average inhibition %, planktonic cells turbidity
[3] = 10 µM, read-out: Average inhibition %, biofilms biomass
[4] = 10 µM, read-out: Average inhibition %, planktonic cells turbidity
[5] = 15 µM, read-out: Average inhibition %, biofilms biomass
[6] = 15 µM, read-out: Average inhibition %, planktonic cells turbidity
[7] = 25 µM, read-out: Average inhibition %, biofilms biomass
[8] = 25 µM, read-out: Average inhibition %, planktonic cells turbidity

MIC (S. aureus ATCC 12598)	SMILES	Average inhibition %, biofilms viability (S. aureus ATCC 12598; 5 µM)	Average inhibition %, planktonic cells viability (S. aureus ATCC 12598; 5 µM)	Average inhibition %, biofilms viability (S. aureus ATCC 12598; 10 µM)	Average inhibition %, planktonic cells viability (S. aureus ATCC 12598; 10 µM)	Average inhibition %, biofilms viability (S. aureus ATCC 12598; 15 µM)	Average inhibition %, planktonic cells viability (S. aureus ATCC 12598; 15 µM)	Average inhibition %, biofilms viability (S. aureus ATCC 12598; 25 µM)	Average inhibition %, planktonic cells viability (S. aureus ATCC 12598; 25 µM)	inhibition at 5 µM (S. aureus ATCC 12598; [1])	inhibition at 5 µM (S. aureus ATCC 12598; [2])	inhibition at 10 µM (S. aureus ATCC 12598; [3])	inhibition at 10 µM (S. aureus ATCC 12598; [4])	inhibition at 15 µM (S. aureus ATCC 12598; [5])	inhibition at 15 µM (S. aureus ATCC 12598; [6])	inhibition at 25 µM (S. aureus ATCC 12598; [7])	inhibition at 25 µM (S. aureus ATCC 12598; [8])	Average inhibition %, biofilms viability (S. aureus P2; 5 µM)	Average inhibition %, planktonic cells viability (S. aureus P2; 5 µM)	Average inhibition %, biofilms viability (S. aureus P2; 10 µM)	further results
10 µM (≈ 3.59 µg/mL)	CCCCCCCCc1ccc2nc(CCC(N)(CO)CO)ccc2c1 [Compound 80, 2-Amino-2-[2-(6-octylquinolin-2-yl)ethyl]propane-1,3-diol]	24.6 ± 6.8%	7.3 ± 12.6%	99.2 ± 0.3%	99.7 ± 0%	99.5 ± 0.1%	99.6 ± 0%	99.5 ± 0.2%	99.6 ± 0%	34.3 ± 18.8%	22.7 ± 5.4%	96.5 ± 1%	99.6%	93.4 ± 1.2%	99.5 ± 0.1%	89.4 ± 0.6%	98.9 ± 0.3%	45.2 ± 2.1%	20.6 ± 21.6%	99.5 ± 0.1%	Average inhibition %, planktonic cells viability (S. aureus P2; 10 µM): 99.7 ± 0.2%; Average inhibition %, biofilms viability (S. aureus P2; 15 µM): 99.5 ± 0%; Average inhibition %, planktonic cells viability (S. aureus P2; 15 µM): 99.6 ± 0.1%; Average inhibition %, biofilms viability (S. aureus P2; 25 µM): 99.5 ± 0%; Average inhibition %, planktonic cells viability (S. aureus P2; 25 µM): 99.5 ± 0.1%; MIC (S. aureus P2): 10 µM (≈ 3.59 µg/mL); inhibition at 5 µM (S. aureus P2; [1]): 57.3 ± 10.2%; inhibition at 5 µM (S. aureus P2; [2]): 3.3 ± 5.4%; inhibition at 10 µM (S. aureus P2; [3]): 95.4 ± 2.9%; inhibition at 10 µM (S. aureus P2; [4]): 99.6 ± 0.1%; inhibition at 15 µM (S. aureus P2; [5]): 95.3 ± 0.8%; inhibition at 15 µM (S. aureus P2; [6]): 99.3%; inhibition at 25 µM (S. aureus P2; [7]): 90.6 ± 1%; inhibition at 25 µM (S. aureus P2; [8]): 98.8 ± 0.2%
	CCCCCCCCCCc1ccc2nc(CCC(N)(CO)CO)ccc2c1 [Compound 81, 2-Amino-2-[2-(6-decylquinolin-2-yl)ethyl]propane-1,3-diol]	15.6 ± 9.7%	4.2 ± 7.3%	99.4 ± 0%	99.7 ± 0%	99.7 ± 0.1%	99.8 ± 0.1%	99.7 ± 0.1%	99.6 ± 0.1%	19.1 ± 26.4%	2.1 ± 3.7%	96 ± 0.6%	99.8 ± 0.1%	93.5 ± 1.8%	99.7 ± 0.1%	88.7 ± 2%	99.3 ± 0.2%	37.3 ± 3.3%	42.9 ± 19.7%	99.6 ± 0.1%	Average inhibition %, planktonic cells viability (S. aureus P2; 10 µM): 99.6 ± 0.2%; Average inhibition %, biofilms viability (S. aureus P2; 15 µM): 99.6 ± 0%; Average inhibition %, planktonic cells viability (S. aureus P2; 15 µM): 99.6 ± 0.1%; Average inhibition %, biofilms viability (S. aureus P2; 25 µM): 99.6 ± 0%; Average inhibition %, planktonic cells viability (S. aureus P2; 25 µM): 99.6 ± 0.2%; inhibition at 5 µM (S. aureus P2; [1]): 48.4 ± 15.7%; inhibition at 5 µM (S. aureus P2; [2]): 0%; inhibition at 10 µM (S. aureus P2; [3]): 96.6 ± 0.4%; inhibition at 10 µM (S. aureus P2; [4]): 99.8 ± 0.1%; inhibition at 15 µM (S. aureus P2; [5]): 94.5 ± 0.6%; inhibition at 15 µM (S. aureus P2; [6]): 99.7 ± 0.1%; inhibition at 25 µM (S. aureus P2; [7]): 89.1 ± 0.6%; inhibition at 25 µM (S. aureus P2; [8]): 99.2 ± 0.2%
10 µM (≈ 3.73 µg/mL)	CCCCCCCCCCc1ccc2nc(CC(N)(CO)CO)ccc2c1 [Compound 83, 2-Amino-2-[(6-decylquinolin-2-yl)methyl]propane-1,3-diol]																				MIC (S. aureus P2): 10 µM (≈ 3.73 µg/mL)

Source: PMC8296573, “Synthesis and Biological Evaluation of Fingolimod Derivatives as Antibacterial Agents” (ACS Omega, 2021)
